Results taken from the METLIN SMRT retention time set (Domingo-Almenara et al. 2019).

Experiment: gradient 5% acetonitrile 3 min, to 50% in 2 min, to 85% in 15 min, held 3 min, 100 µL/min
Conditions: column: Zorbax Extend-C18 2.1 x 50 mm; eluents: water / acetonitrile, 0.1% formic acid
How it was run: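 Retention times come from adduct peaks that were picked computationally and then checked by hand. The standards, pure and pooled in mixtures of ~100 molecules, were run on a Zorbax Extend-C18 column (2.1 × 50 mm, 1.8 μm) at 100 μL/min with water and acetonitrile, each with 0.1% formic acid. Detection was by quadrupole time-of-flight mass spectrometry in positive and negative ionization mode, with a dead volume of 40 μL and a dwell volume of 900 μL.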

Going from `CC(=O)Nc1ccc(C(=O)N2CCC3(CC2)N=C(c2ccccc2)NO3)cc1` to `O=C1NC2(CCN(C(=O)Nc3ccccc3F)CC2)N=C1c1cccc(Cl)c1`, the RP-LC retention time rises from 664 s to 839 s.

Compared with `O=C(CSc1nnc2ccc(-c3cccnc3)nn12)NCc1cccs1`, `CC(C)(C)c1cc(C(=O)NCc2cccnc2)nc2ccnn12` is higher in RP-LC retention time: 588 s for the first, 657 s for the second.

Going from `O=C(Nc1nc(-c2ccc([N+](=O)[O-])cc2)cs1)C1=COCCO1` to `Cc1ccc(-c2csc(NC(=O)c3coc4ccccc4c3=O)n2)o1`, the RP-LC retention time rises from 844 s to 1070 s.

First: O=S(=O)(NCc1ccc2[nH]c3c(c2c1)CCCC3)c1ccccc1
Second: CCN1CCCn2cc(S(=O)(=O)NCc3ccccc3Cl)cc2C1=O
The RP-LC retention time of the first is lower: 600 s for the first, 750 s for the second.

Compared with `CCCc1cc(C2CCCN2C(=O)Nc2cccc(C)c2)no1` (centres undefined), `Cc1scc2nc(C(=O)Nc3cccc(F)c3)nc(N3CCCC3)c12` is lower in RP-LC retention time: 945 s for the first, 567 s for the second.

Going from `CS(=O)(=O)Nc1ccc2nc(S(C)(=O)=O)sc2c1` to `COC(=O)c1cnc2nc(C)ccc2c1Nc1ccc(S(N)(=O)=O)cc1`, the RP-LC retention time falls from 661 s to 586 s.

Going from `CCOc1ccc(C(=O)Nc2ccc(Nc3ccc(-n4cccn4)nn3)cc2)cc1OCC` to `CCOc1ccccc1NC(=O)Cn1cnc2c(sc3nc(-c4ccccc4)ccc32)c1=O`, the RP-LC retention time rises from 782 s to 1110 s.

Going from `COc1cccc(OC)c1C(=O)Nc1nc(-c2ccc3c(c2)NC(=O)C(C)O3)c(C)s1` (centres undefined) to `CCOC(=O)c1cnc2nc(C)ccc2c1Nc1ccc(OC)c(OC)c1`, the RP-LC retention time falls from 866 s to 587 s.

First: COc1ccc(Cl)cc1C(=O)NCCOc1ccc(F)cc1
Second: COc1cn(-c2ccc(F)cc2)nc1C(=O)NCCC1=CCCCC1
The RP-LC retention time of the first is lower: 925 s for the first, 942 s for the second.

Going from `COC(=O)c1ccc2c(=O)n(Cc3cccc(OC)c3)c(N3CCOCC3)nc2c1` to `CCn1ncc(NC(=O)c2ccccc2F)c(N2CCOCC2)c1=O`, the RP-LC retention time falls from 936 s to 842 s.

First: COc1ccc2c(c1)-c1nc(NC(=O)c3ccccc3Br)sc1CC2
Second: O=C(O)c1cc(-c2ccc(Br)s2)nc2ccccc12
The RP-LC retention time of the first is higher: 1140 s for the first, 1110 s for the second.

Going from `Cc1sc(-c2noc(C(C)C)n2)cc1S(=O)(=O)N1CCC(C(=O)Nc2cccc(C#N)c2)CC1` to `Cn1c(=O)sc2cc(S(=O)(=O)N3CCC(C(=O)NCc4cccs4)CC3)ccc21`, the RP-LC retention time falls from 1090 s to 788 s.

Compared with `Cc1nn2c(ncc3c(=O)n(-c4nccs4)ccc32)c1-c1ccccc1`, `CC1=C(c2ccccc2)S(=O)(=O)N=C1N1CCCN(C(=O)c2cc(F)cc(F)c2)CC1` is lower in RP-LC retention time: 1170 s for the first, 846 s for the second.

Compared with `CCOC(=O)CC(=O)CSc1nnc(CNC(=O)c2ccc(F)cc2)o1`, `CCOCC(=O)Nc1ccc(-c2nnc(CC)o2)cc1` is lower in RP-LC retention time: 678 s for the first, 657 s for the second.

Going from `Cc1ccccc1NC(=O)CN1C(=O)CCc2cc(S(=O)(=O)N3CCCCC3C)ccc21` (centres undefined) to `CC1CCCCN1CCNC(=O)Cn1c(=O)c2cccn2c2ccc(F)cc21` (centres undefined), the RP-LC retention time falls from 896 s to 612 s.

Compared with `c1ccc(N2CCN(Cc3nc(-c4ccc(N5CCSCC5)nc4)no3)CC2)cc1`, `O=C(C1CCN(S(=O)(=O)c2ccc(-c3noc(COc4ccccc4)n3)cc2)CC1)N1CCCC1` is higher in RP-LC retention time: 937 s for the first, 961 s for the second.

Going from `N#Cc1ccc(C(=O)Nc2nnc(CSc3ccccc3)o2)cc1` to `COc1ccc(OC)c(S(=O)(=O)NC(C)c2ccccc2)c1` (centres undefined), the RP-LC retention time rises from 749 s to 845 s.

Going from `O=C(c1ccoc1)N1CCCC(c2nnc3n2CCN(C(=O)C2CC2)C3)C1` (centres undefined) to `CCOC(=O)C1CCN(C(=O)Cn2c(=O)oc3ccc(C(=O)N4CCCCC4)cc32)CC1`, the RP-LC retention time rises from 591 s to 759 s.

Going from `Cc1ccc(NC(=O)CN2C(=O)COc3ccc(C(=O)N(C)C)cc32)nc1` to `Cc1cc(C)c2[nH]c3c(c(=O)c2c1)CN(CC(=O)Nc1ccc2c(c1)OCO2)CC3`, the RP-LC retention time rises from 612 s to 626 s.

Compared with `CCOc1ccc(C2C(=O)N(C3CCCCC3)CC(=O)N2Cc2ccco2)cc1OC` (centres undefined), `COc1ccc(Br)cc1Cn1nnc(C(=O)NCc2ccco2)c1N` is lower in RP-LC retention time: 879 s for the first, 791 s for the second.

First: Cc1cc(N2CCCC2)nc(N2CCN(C(=O)C3CCCCC3)CC2)n1
Second: O=C(C1CCCN(c2cnc3nccnc3c2)C1)N1CCN(c2ccccc2)CC1 (centres undefined)
The RP-LC retention time of the first is lower: 693 s for the first, 715 s for the second.

Going from `CCN1C(=O)c2cc(C(=O)Nc3ccc(Cl)cc3)nn2CC1(C)C(=O)NC1CCCC1` (centres undefined) to `Cc1ccc2ncn(C3CCN(C(=O)Nc4ccc(F)cc4)CC3)c(=O)c2c1`, the RP-LC retention time falls from 860 s to 765 s.

First: Cc1ccc(NC(=O)CCc2ccc3nc[nH]c3c2)cc1Cl
Second: CCn1cc(CCNC(=O)Nc2ccc(C)c(C)c2)c2cccnc21
The RP-LC retention time of the first is lower: 646 s for the first, 762 s for the second.

Compared with `CCC(C(=O)NCCN1CCOCC1)n1c2ccccc2c2cnn(C)c(=O)c21` (centres undefined), `CCC(CC)C(=O)N1CCc2c(c(C(=O)N3CCCC(C(=O)Nc4ccccc4)C3)nn2C)C1` (centres undefined) is higher in RP-LC retention time: 617 s for the first, 761 s for the second.

First: CCC(NC(=O)C1CCN(c2nnc(-c3ccc(OC)cc3)o2)CC1)c1cccs1 (centres undefined)
Second: CCCOc1ccc(CNC(=O)C2CCN(c3cc(Oc4ccccc4)ncn3)CC2)cc1
The RP-LC retention time of the first is lower: 863 s for the first, 988 s for the second.

First: Cn1nc(-c2nc(C3CC3)no2)c2c1CCN(C(=O)NCc1ccccc1)C2
Second: CCCNC(=O)c1cn(-c2ccc(-c3nc(C4CC4)no3)cn2)cn1
The RP-LC retention time of the first is lower: 788 s for the first, 815 s for the second.

First: CCOC(=O)c1c(S(=O)(=O)N2CCC(C(=O)Nc3ccc(F)cc3C)CC2)c(C)n(CC)c1C
Second: CCn1cnc(S(=O)(=O)N2CCC(C(=O)NCCC3=CCCCC3)CC2)c1
The RP-LC retention time of the first is higher: 885 s for the first, 761 s for the second.

Compared with `C/C(=C\c1csc(C)n1)C1C[C@@H]2O[C@@H]2CCC[C@H](C)[C@H](O)[C@@H](C)C(=O)C(C)(C)[C@@H](O)CC(=O)O1` (some centres undefined), `O=C1NCCOCCN(C(=O)Nc2ccccc2)[C@@H]2CCCC[C@H]12` is lower in RP-LC retention time: 874 s for the first, 741 s for the second.

First: CCOC(=O)C1=Cc2ccc(C(F)(F)C(F)(F)F)cc2N=C(N)C1
Second: O=C(NCC(F)(F)F)C1CCN(C(=O)Cc2noc3ccccc23)CC1
The RP-LC retention time of the first is higher: 794 s for the first, 687 s for the second.

First: O=C(NCc1cccnc1-c1ccc(F)cc1)c1cc(F)cc(F)c1
Second: Cn1cc(-c2ccncc2)cc1C(=O)NCc1ccc(Br)cc1
The RP-LC retention time of the first is higher: 710 s for the first, 662 s for the second.

First: CCc1noc(-c2ccc(-n3cnc(C(=O)NC(C)c4ccc(F)cc4)c3)nc2)n1 (centres undefined)
Second: COc1ccc(C(=O)N2CCN(c3ccc(-c4nc(C)cs4)cn3)CC2)cc1F
The RP-LC retention time of the first is higher: 1000 s for the first, 819 s for the second.

Compared with `O=C(Nc1ccc(F)c(Cl)c1)N1CCC(OC2CCN(Cc3ccccc3)CC2)CC1`, `Cc1ccc(CC(=O)NC2CCN(c3nnc4ccc(C(F)(F)F)cn34)CC2)cc1` is higher in RP-LC retention time: 710 s for the first, 815 s for the second.

Going from `COc1ccc(CNC(=O)C2CCCN(c3nc4c(s3)c(C)nn4-c3ccc(Cl)cc3)C2)cc1` (centres undefined) to `COc1ccc(Cl)cc1C(=O)N1CCN(c2ccc(-c3nc(C)c(C)s3)cn2)CC1`, the RP-LC retention time falls from 1200 s to 956 s.

First: O=C(OCc1cc(-c2cccs2)on1)c1cc(-c2ccco2)n[nH]1
Second: Cc1ccc(F)cc1S(=O)(=O)N1CCC(n2c(-c3ccco3)nc3cccnc32)C1 (centres undefined)
The RP-LC retention time of the first is lower: 786 s for the first, 910 s for the second.

First: COc1ccc(C2CCCN2C(=O)c2ccnn2C)cc1 (centres undefined)
Second: CCCNC(=O)c1ccc(-c2ccnc(N3CCCCC3)n2)cc1
The RP-LC retention time of the first is lower: 722 s for the first, 905 s for the second.

First: c1ccc(CNc2nc(C3CC3)nc3c2CCC3)nc1
Second: Cc1ncsc1CN1CCCC(c2nc(-c3cnccn3)no2)CCNC(=O)CC1 (centres undefined)
The RP-LC retention time of the first is lower: 540 s for the first, 577 s for the second.

Compared with `Cc1cccc(Nc2c(-c3ccc(N4CCOCC4)cc3)nc3ncccn23)c1`, `Cc1ccc(-c2nc(N3CC(C)CC(C)C3)c3ccccc3n2)cc1` (centres undefined) is higher in RP-LC retention time: 717 s for the first, 932 s for the second.

Compared with `CCN(CC)CCCNC(=O)CCc1c(-c2ccc(Cl)cc2)nc2ccccn12`, `CCCCN(C)c1nc(-c2ccc(Cl)cc2Cl)nc2ccccc12` is higher in RP-LC retention time: 558 s for the first, 893 s for the second.

Compared with `Cc1ccc2c(c1)N(C(=O)Cn1c(=O)n(C3CC3)c(=O)c3nscc31)CCO2`, `CCNc1nc(C)cc(N2CCN(C(=O)Nc3ccc(C)cc3C)CC2)n1` is lower in RP-LC retention time: 773 s for the first, 656 s for the second.

Compared with `COc1c(C(=O)NC(C)(C)C)sc2ccc(F)cc12`, `COC(=O)c1cc2ccsc2n1CC(=O)Nc1ccc(F)cc1F` is lower in RP-LC retention time: 1080 s for the first, 949 s for the second.

Going from `COc1cccc(CNC2=NCCNC23CCN(S(=O)(=O)c2ccc(C)cc2)CC3)c1` to `Cc1ccc(S(=O)(=O)Cc2noc(CCNS(=O)(=O)c3ccc(C)cc3)n2)cc1`, the RP-LC retention time rises from 717 s to 875 s.

Compared with `Cc1ccc(CNC(=O)Cn2ncn3c(C)c(C(=O)NCc4ccc(C)cc4)c(C)c3c2=O)cc1`, `CC(C)N(CC[C@H](c1ccccc1)c1cc(CO)ccc1O)C(C)C` is lower in RP-LC retention time: 851 s for the first, 678 s for the second.

First: c1ccc2c(c1)-c1cccc3cncc-2c13
Second: COCCCNC(=O)C1CCCN(c2nccnc2Sc2ccccc2)C1 (centres undefined)
The RP-LC retention time of the first is higher: 897 s for the first, 849 s for the second.

First: Cn1nc(C(=O)N2CCCCC2)c2c1CCN(C(=O)CCC(=O)NCCCN1CCCCC1)C2
Second: Cn1cccc1C(=O)N1CCc2nn(CC#N)c(=O)n2CC1
The RP-LC retention time of the first is lower: 579 s for the first, 622 s for the second.

Work on `CCOc1ccc2c(n1)CCN(C(=O)NCCOC)C2` yielded an RP-LC retention time of 624 s.
